“And” between values parts separate entries of the source, which are not always exact repeats. Identical values can stand only once.
Columns and labels:
[1] = phase I pharmacokinetics in plasma and urine; assay type: in vivo, human
Experimental: (§1) Preclinical testing confirmed promising antiproliferative activity. […] Physical examination was performed weekly. […] N-Acetyl-SPERMINE SSAT SSAT […] Analysis was descriptive only. […] Patient characteristics are described in Table 1. […] Three patients completed the full six cycles of treatment. Of these, two received the combination 5FU/SAM486A from cycle 3 onwards. Five patients recorded a best response of stable disease. Of these, three received the combination 5FU/SAM486A from cycle 3 onwards (see below).

[2] = test system: polyamine pools and SAMDC activity in leukocytes; experiment: polyamines and SAMDC activity in peripheral blood leukocytes; assay type: in vivo, human
Experimental: as §1

[3] = test system: xenograft or orthotopic tumour; set-up: method as in earlier work; details: 5- 25 mg kg-1 day-1 intraperitoneally, ref Regenass et al, 1994, Dorhout et al, 1995, Gutman et al, Manni et al, Delworth et al, 1997, Svensson et al, Mi et al, 1998; cited from earlier work
[4] = test system: tumour; set-up: method as in Gschaidmeier et al, 1999, O'Reilly et al, 2000; details: in vitro and in vivo; ref Gschaidmeier et al, 1999, O'Reilly et al, 2000; cited from earlier work
[5] = test system: L-1210 leukaemia; set-up: method as in Dorhout et al, 1995; details: treated L-1210 leukaemia-bearing animals; ref Dorhout et al, 1995; cited from earlier work
[6] = set-up: method as in data on file; details: rats and dogs; ref data on file; cited from earlier work
[7] = test system: human HCT-116 tumour cell line; set-up: method as in data on file; details: subcutaneous HCT-116 in nude mice; ref data on file; cited from earlier work
[8] = short-term single or repeat bolus injections of high doses; preclinical background, ref not given; cited from earlier work
[9] = phase I safety and tolerability, 120 h continuous infusion every 4 weeks
[10] = Table 3, 6 mg m-2 cycle-1, 4 patients studied
[11] = Table 3, 12 mg m-2 cycle-1, 3 patients studied
[12] = Table 3, 24 mg m-2 cycle-1, 3 patients studied
[13] = Table 3, 400 mg m-2 cycle-1, 6 patients studied
[14] = Table 3, 550 mg m-2 cycle-1, 6 patients studied
[15] = Table 3, 700 mg m-2 cycle-1, 5 patients studied
[16] = Table 3, all dose levels, 39 patients
[17] = Table 3, all dose levels, 39 patients, incl. combination
[18] = Table 4, after infusion (day 6-28), 550 mg m-2 cycle-1, 6 patients studied
[19] = Table 4, after infusion (day 6-28), 700 mg m-2 cycle-1, 5 patients studied
[20] = Table 4, after infusion (day 6-28), all dose levels, 39 patients
[21] = Table 4, after infusion (days 6-28), 3 mg m-2 cycle-1, 3 patients studied
[22] = Table 4, after infusion (days 6-28), 6 mg m-2 cycle-1, 4 patients studied
[23] = Table 4, after infusion (days 6-28), 24 mg m-2 cycle-1, 3 patients studied
[24] = Table 4, after infusion (days 6-28), 96 mg m-2 cycle-1, 3 patients studied
[25] = Table 4, after infusion (days 6-28), 400 mg m-2 cycle-1, 6 patients studied
[26] = Table 4, after infusion (days 6-28), 550 mg m-2 cycle-1, 6 patients studied
[27] = Table 4, after infusion (days 6-28), 700 mg m-2 cycle-1, 5 patients studied
[28] = Table 4, after infusion (days 6-28), all dose levels, 39 patients
[29] = Table 4, during infusion (day 1-5), 700 mg m-2 cycle-1, 5 patients studied
[30] = Table 4, during infusion (day 1-5), all dose levels, 39 patients

N=C(N)c1cccc2c1CCC2=NN=C(N)N [SAM486A]
mean terminal elimination t1/2 ([1]; all patients included in the analysis, standard deviation 23.1 h): 48.6 h | fraction of total drug administered excreted in urine ([1]; day 1): Approximately 3% | plasma SAM486A concentrations ([1]; first 10 patients at lowest dose levels, significant portions of sampling interval): below the limit of quantitation | terminal half-life (approximate) ([1]; plasma, patients): approximately 2 days | evaluable patients with marginal trend to increased SAMDC activity ([2]; 400 mg m-2 cycle-1 and above): eight of 13 | evaluable patients with trend to increased putrescine ([2]; 400 mg m-2 cycle-1 and above): 10 of the 11 | evaluable patients with trend to increased putrescine ([2]; 3-200 mg m-2 cycle-1): six of the 12 | evaluable patients with marginal trend to increased SAMDC activity ([2]; doses up to 200 mg m-2 cycle-1): nine of 18 | expected concomitant decrease in spermidine and spermine ([2]; peripheral blood leukocytes): could not be detected | effect on tumour growth [3]: inhibited tumour growth | effect of combination with 5FU and with cisplatin [4]: Additive to synergistic effects | SAMDC activity and putrescine pools in tumours [5]: decreased SAMDC activity and elevated putrescine pools | metabolism and excretion [6]: hardly metabolized and predominantly renally excreted | plasma clearance and distribution [6]: multi-exponential with extensive distribution outside the plasma compartment | drug level in tumours compared to plasma elimination profile [7]: marked accumulation of the drug was seen in tumours | acute toxicity findings [8]: acute cardiovascular and respiratory | patients with grade 4 granulocytopenia ([9]; 550 mg m-2 cycle-1, six patients): three | maximum tolerated dose (MTD) ([9]; 120 h continuous infusion every 4 weeks): 400 mg m-2 cycle-1 | correlation coefficient AUC vs granulocytopenia ([9]; Figure 4): 0.6931 | correlation coefficient dose vs granulocytopenia ([9]; Figure 4): 0.5814 | Haemoglobin grade 1-4, no. of patients ([9]; Table 3, 3 mg m-2 cycle-1, 3 patients studied): 2 patients | Haemoglobin grade 1-4, no. of patients [9, 10]: 2 patients | Thrombocytes (platelets) grade 1-4, no. of patients [9, 10]: 1 patients | Thrombocytes grade 3-4, no. of patients [9, 10]: 1 patients | Haemoglobin grade 1-4, no. of patients [9, 11]: 2 patients | Haemoglobin grade 3-4, no. of patients [9, 11]: 1 patients | Haemoglobin grade 1-4, no. of patients [9, 12]: 3 patients | Haemoglobin grade 3-4, no. of patients [9, 12]: 1 patients | Haemoglobin grade 1-4, no. of patients ([9]; Table 3, 48 mg m-2 cycle-1, 4 patients studied): 2 patients | Haemoglobin grade 1-4, no. of patients ([9]; Table 3, 96 mg m-2 cycle-1, 3 patients studied): 1 patients | Leukocytes (WBC) grade 1-4, no. of patients ([9]; Table 3, 200 mg m-2 cycle-1, 2 patients studied): 1 patients | Granulocytes (AGC) grade 1-4, no. of patients [9, 13]: 2 patients | Granulocytes (AGC) grade 3-4, no. of patients [9, 13]: 1 patients | Haemoglobin grade 1-4, no. of patients [9, 13]: 3 patients | Leukocytes (WBC) grade 1-4, no. of patients [9, 13]: 2 patients | Granulocytes (AGC) grade 1-4, no. of patients [9, 14]: 4 patients | Granulocytes (AGC) grade 3-4, no. of patients [9, 14]: 4 patients | Haemoglobin grade 1-4, no. of patients [9, 14]: 4 patients | Haemoglobin grade 3-4, no. of patients [9, 14]: 1 patients | Leukocytes (WBC) grade 1-4, no. of patients [9, 14]: 5 patients | Leukocytes (WBC) grade 3-4, no. of patients [9, 14]: 3 patients | Thrombocytes (platelets) grade 1-4, no. of patients [9, 14]: 1 patients | Thrombocytes grade 3-4, no. of patients [9, 14]: 1 patients | Granulocytes (AGC) grade 1-4, no. of patients [9, 15]: 4 patients | Granulocytes (AGC) grade 3-4, no. of patients [9, 15]: 3 patients | Haemoglobin grade 1-4, no. of patients [9, 15]: 2 patients | Haemoglobin grade 3-4, no. of patients [9, 15]: 1 patients | Leukocytes (WBC) grade 1-4, no. of patients [9, 15]: 4 patients | Leukocytes (WBC) grade 3-4, no. of patients [9, 15]: 3 patients | Thrombocytes (platelets) grade 1-4, no. of patients [9, 15]: 2 patients | Haemoglobin grade 1-4, Total (%) [9, 16]: 21 (54) patients (%) | Haemoglobin grade 3-4, Total (%) [9, 16]: 4 (10) patients (%) | Thrombocytes grade 3-4, Total (%) [9, 16]: 2 (5) patients (%) | Granulocytes (AGC) grade 1-4, Total (%) [9, 17]: 12 (31) patients (%) | Granulocytes (AGC) grade 3-4, Total (%) [9, 17]: 9 (23) patients (%) | Leukocytes (WBC) grade 1-4, Total (%) [9, 17]: 14 (36) patients (%) | Leukocytes (WBC) grade 3-4, Total (%) [9, 17]: 7 (18) patients (%) | Fatigue grade 3-4, no. of patients ([9]; Table 4, after infusion (day 6-28), 400 mg m-2 cycle-1, 6 patients studied): 1 patients | Anorexia grade 3-4, no. of patients [9, 18]: 1 patients | Atrial fibrillation grade 3-4, no. of patients [9, 18]: 1 patients | Condition aggravated grade 3-4, no. of patients [9, 18]: 1 patients | Dementia grade 3-4, no. of patients [9, 19]: 1 patients | Dyspnea grade 3-4, no. of patients [9, 19]: 1 patients | Fatigue grade 3-4, no. of patients [9, 19]: 1 patients | Somnolence grade 3-4, no. of patients [9, 19]: 1 patients | Vesicular rash grade 3-4, no. of patients [9, 19]: 1 patients | Anorexia grade 3-4, Total (%) [9, 20]: 1 (3) patients (%) | Atrial fibrillation grade 3-4, Total (%) [9, 20]: 1 (3) patients (%) | Condition aggravated grade 3-4, Total (%) [9, 20]: 1 (3) patients (%) | Dementia grade 3-4, Total (%) [9, 20]: 1 (3) patients (%) | Dyspnea grade 3-4, Total (%) [9, 20]: 1 (3) patients (%) | Fatigue grade 3-4, Total (%) [9, 20]: 2 (5) patients (%) | Somnolence grade 3-4, Total (%) [9, 20]: 1 (3) patients (%) | Vesicular rash grade 3-4, Total (%) [9, 20]: 1 (3) patients (%) | Mucositis nos grade 3-4, Total (%) ([9]; Table 4, after infusion (day 6-28), all dose levels, 39 patients, incl. combination): 1 (3) patients (%) | Anorexia grade 1-4, no. of patients [9, 21]: 1 patients | Fatigue grade 1-4, no. of patients [9, 21]: 1 patients | Fatigue grade 1-4, no. of patients [9, 22]: 1 patients | Nausea grade 1-4, no. of patients [9, 22]: 1 patients | Fatigue grade 1-4, no. of patients ([9]; Table 4, after infusion (days 6-28), 12 mg m-2 cycle-1, 3 patients studied): 1 patients | Fatigue grade 1-4, no. of patients [9, 23]: 1 patients | Nausea grade 1-4, no. of patients [9, 23]: 1 patients | Vomiting grade 1-4, no. of patients [9, 23]: 1 patients | Nausea grade 1-4, no. of patients [9, 24]: 1 patients | Vomiting grade 1-4, no. of patients [9, 24]: 1 patients | Anorexia grade 1-4, no. of patients [9, 25]: 3 patients | Fatigue grade 1-4, no. of patients [9, 25]: 2 patients | Nausea grade 1-4, no. of patients [9, 25]: 1 patients | Anorexia grade 1-4, no. of patients [9, 26]: 1 patients | Fatigue grade 1-4, no. of patients [9, 26]: 2 patients | Nausea grade 1-4, no. of patients [9, 26]: 3 patients | Vomiting grade 1-4, no. of patients [9, 26]: 3 patients | Fatigue grade 1-4, no. of patients [9, 27]: 2 patients | Nausea grade 1-4, no. of patients [9, 27]: 2 patients | Vomiting grade 1-4, no. of patients [9, 27]: 3 patients | Anorexia grade 1-4, Total (%) [9, 28]: 5 (13) patients (%) | Fatigue grade 1-4, Total (%) [9, 28]: 10 (26) patients (%) | Vomiting grade 1-4, Total (%) [9, 28]: 8 (21) patients (%) | Nausea grade 1-4, Total (%) ([9]; Table 4, after infusion (days 6-28), all dose levels, 39 patients, incl. combination): 10 (26) patients (%) | Asthenia grade 3-4, no. of patients ([9]; Table 4, during infusion (day 1-5), 550 mg m-2 cycle-1, 6 patients studied): 1 patients | Condition aggravated grade 3-4, no. of patients [9, 29]: 1 patients | Vesicular rash grade 3-4, no. of patients [9, 29]: 1 patients | Vomiting grade 3-4, no. of patients [9, 29]: 1 patients | Asthenia grade 3-4, Total (%) [9, 30]: 1 (3) patients (%) | Condition aggravated grade 3-4, Total (%) [9, 30]: 1 (3) patients (%) | Vesicular rash grade 3-4, Total (%) [9, 30]: 1 (3) patients (%) | Vomiting grade 3-4, Total (%) [9, 30]: 1 (3) patients (%) | Nausea grade 1-4, no. of patients ([9]; Table 4, during infusion (days 1-5), 400 mg m-2 cycle-1, 6 patients studied): 1 patients | Nausea grade 1-4, no. of patients ([9]; Table 4, during infusion (days 1-5), 550 mg m-2 cycle-1, 6 patients studied): 2 patients | Nausea grade 1-4, no. of patients ([9]; Table 4, during infusion (days 1-5), 700 mg m-2 cycle-1, 5 patients studied): 2 patients | Nausea grade 1-4, Total (%) ([9]; Table 4, during infusion (days 1-5), all dose levels, 39 patients): 5 (13) patients (%) | mild to moderate nausea and vomiting, incidence ([9]; after infusion, any causality): 31% | fatigue, incidence in all patients ([9]; after the infusion, any causality): 51% | anorexia considered related to SAM486A, incidence ([9]; all patients): 13% | fatigue considered related to SAM486A, incidence ([9]; all patients): 26% | nausea considered related to SAM486A, incidence ([9]; all patients): 26% | vomiting considered related to SAM486A, incidence ([9]; all patients): 21% | mild to moderate nausea and vomiting, incidence ([9]; during infusion, any causality): 15% | changes in electrolytes, renal function, LVEF ([9]; in vivo): no significant drug-related changes | correlation coefficient Cmax vs granulocytopenia ([9]; in vivo): 0.6794 | dose with reversible dose-limiting neutropenia ([9]; in vivo): 550 mg m^–2cycle^–1 and 700 mg m^–2cycle^–1 | fever associated with granulocytopenia ([9]; in vivo): three | median day of granulocyte nadir ([9]; in vivo): 21 day of the cycle | patients with grade 4 granulocytopenia ([9]; in vivo): three out of five | patients with some worsening in performance status ([9]; in vivo): eight of the 11 | recommended dose for phase II studies ([9]; in vivo): 400 and 400 mg m-2 cycle-1 | time to spontaneous recovery from granulocyte nadir ([9]; without growth factors): ≤ 1 week
